Results as given in article PMC12718081 (ACS Infectious Diseases, 2025).
Several values for one entry are separate records, joined by “and”; a condition that tells them apart may be missing. Equal entries are not always repeated. Entries after “also recorded” stand apart in the source; their conditions may differ. Where two headings read alike, the source gives them in different places.

Experiments:
[1] = system: HepG2 hepatic epithelial cells; test: in vitro; conditions: for Selectivity Index (CC50/EC50), Male: HepG2 CC50 / male worm motility EC50, 48 h
Protocol: (§1) Next, we conducted a more detailed investigation by performing dose–response assays with each compound on HepG2 hepatic epithelial cells, as the liver is one of the major organs affected in intestinal schistosomiasis.
(§2) More details are provided in the Supporting Information.
(§3) Adult worm ex-vivo high-content assay
(§4) Male and female worms were placed in 96-well microplates (one worm per well) and incubated […]
(§5) to 72 hours. Brightfield timelapse images (100 images, 0.3-second intervals) were captured from each well before, immediately after, and every 24 hours following compound addition using an ImageXpress Micro Confocal High Content System equipped with a 2x objective. Image analysis was performed through a custom pipeline in CellProfiler software (v. 4.2.1, Windows OS).57 During analysis, the area of each worm and its displacement between consecutive image captures (i.e., images taken at successive time points) were measured using the parameters “Area” and “False Negative Rate” from the MeasureObjectSizeShape and MeasureObjectOverlap modules, respectively. These measurements were then modeled by a multilevel generalized linear statistical model. The effects of the experimental treatments on parasite motility were estimated with the integrated nested Laplace approximation (INLA) method, available in the INLA package of R (https://www.r-inla.org). The half-maximal inhibitory concentration (EC50) of each compound was calculated based on the worms' estimated motility using the […] 4-parameter logistic equation in GraphPad Prism version 9.0.0 for Windows (GraphPad Software, Boston, MA, USA; www.graphpad.com). […]
(§6) either at a fixed concentration (10 µM) or across a range of concentrations (0.0001–300 µM), or with DMSO as a negative control. Two hours before the end of the experiment (t0), a resazurin solution (final concentration: 0.01 mg/mL) was added to each well and the first fluorescence […]
(§7) reader. At the end of the incubation (t1), a second reading was performed. The fluorescence attributed solely to resorufin was measured by subtracting the fluorescence readings at t0 from those at t1. The results were expressed as percentual cell viability considering negative control

in vitro = conditions: human, HepG2 cytotoxicity (CC50)
Protocol: as §1, §2, §3, §4, §5, §6, §7

juvenile schistosomes = test: Microscopy analysis of juvenile morphology and motility (viability score 0-3); conditions: 10 μM, 72 h; for number of juvenile worms with viability score 0 / number of juvenile worms with viability score 1 / number of juvenile worms with viability score 2 / number of juvenile worms with viability score 3: Table S1
[2] = system: juvenile schistosomes (21 days p.i.); test: XTT juvenile viability assay; assay type: cell-based, Schistosoma mansoni; conditions: 100 μM, 48 h
Fh.TRPMPZQ = test: Ca2+ reporter (FLIPR) activation assay, Fh.TRPMPZQ in HEK293 cells; assay type: cell-based, Fasciola hepatica; conditions: at the tested concentrations, data not shown
Protocol: (§8) Finally, selectivity for Sm.TRPMPZQ was assessed by profiling responses on the F. hepatica (Fh.TRPMPZQ) and E. granulosus (Eg.TRPMPZQ) TRPMPZQ orthologs, as well as the schistosome TRPM paralog Sm.TRPMMCLZ, a distinct TRPM channel activated by meclonazepam. Meclonazepam is an anthelmintic benzodiazepine known for its toxicity to juvenile schistosome worms.
(§9) The Ca^2+ reporter assay was performed using a Fluorescence Imaging Plate Reader (FLIPR) system, as described in the Supporting Information. […]
(§10) The half-maximal inhibitory
(§11) Windows (GraphPad Software, Boston, MA, USA; www.graphpad.com). […]
(§12) with DMSO as a negative control. […]
(§13) reader. […] The fluorescence
(§14) Untransfected HEK293 cells were used as a control.
(§15) 10% fetal bovine serum (FBS). […]
(§16) atmosphere containing 5% CO₂. Following incubation, the growth medium was removed and […]
(§17) buffer containing 2.5 mM probenecid in HBSS (with Ca²⁺ and Mg²⁺), 20 mM HEPES, 0.3% BSA (Sigma, A7030), and 0.03% L-ascorbic acid (Sigma). Cells were incubated for 40 minutes at 37 °C and subsequently for 20 minutes at room temperature. A total of seven PZQ derivatives were tested, using racemic PZQ included as a positive control on each assay plate. Drug dilutions were prepared in assay buffer without dye and probenecid and dispensed into separate flat-bottom 384-well plates. Calcium flux measurements were performed at room temperature using a […]
(§18) instrument (Molecular Devices). Baseline fluorescence was recorded for 20 seconds, followed by the addition of 5 µL of each drug solution, after which fluorescence was measured continuously for 250 seconds. […]

Sm.TRPMMCLZ = test: Ca2+ reporter (FLIPR) activation assay, Sm.TRPMMCLZ in HEK293 cells; assay type: cell-based, Schistosoma mansoni; conditions: at the tested concentrations, data not shown
Protocol: as §8, §9, §10, §11, §12, §13, §14, §15, §16, §17, §18

Sm.TRPMPZQ (wild-type) = Sm.TRPMPZQ (wild-type) (Schistosoma mansoni, UniProt A0A5K4F0X5); test: Ca2+ reporter (FLIPR) activation assay, wild-type Sm.TRPMPZQ in HEK293 cells; assay type: cell-based
Protocol: as §9, §10, §11, §12, §13, §14, §15, §16
buffer containing 2.5 mM probenecid in HBSS (with Ca²⁺ and Mg²⁺), 20 mM HEPES, 0.3% BSA (Sigma, A7030), and 0.03% L-ascorbic acid (Sigma). Cells were incubated for 40 minutes at 37 °C and subsequently for 20 minutes at room temperature. […]
prepared in assay buffer without dye and probenecid and dispensed into separate flat-bottom 384-well plates. Calcium flux measurements were performed at room temperature using a […]
as §18

[3] = system: adult schistosomes (male and female worms); test: Adult worm ex vivo high-content image-based motility assay; assay type: cell-based, Schistosoma mansoni
Protocol: Adult schistosomes’ motility was determined using a high-content assay previously developed by our group, , with images analyzed in CellProfiler software. More details are provided in the Supporting Information.
as §3
(§19) “Area” and “False Negative Rate” from the MeasureObjectSizeShape and MeasureObjectOverlap modules, respectively. These measurements were then modeled by a multilevel generalized linear statistical model. The effects of the experimental treatments on […]
as §10, §11
with DMSO as a negative control.

Eg.TRPMPZQ = Eg.TRPMPZQ (Echinococcus granulosus, UniProt W6UVV9); test: cell-based; conditions: HEK293, Ca2+ reporter, mean ± standard deviation; for Emax: read-out: Bmax, Eg.TRPMPZQ activation
Sm.TRPMPZQ = test: Ca2+ reporter assay in antagonist mode (block of PZQ activation of Sm.TRPMPZQ); assay type: cell-based, Schistosoma mansoni; conditions: preincubation 1 nM-100 μM for 10 min, data not shown
Protocol: The Ca^2+ reporter assay was performed using a Fluorescence Imaging Plate Reader (FLIPR) system, as described in the Supporting Information.
as §3, §19, §10, §11, §12, §13, §14, §15, §16, §17, §18
schistosomula after 72h of incubation using the Roboworm high-content screening assay. Auranofin (AUR) was included at 10 µM as positive control. DMSO was included as a negative control. Compounds were considered hits if both their motility and phenotype scores were lower than -0.35 and -0.15, respectively (region delimited by the […]
(1 picture or pasted object on this page, not shown here)

S. mansoni schistosomula = test: Roboworm high-content screening assay on schistosomula (motility and phenotype scores); assay type: cell-based, Schistosoma mansoni; conditions: 25 μM, 72 h
Protocol: All PZQ derivatives were synthesized in the racemic form and evaluated as such. The compounds were initially screened at 10 μM against S. mansoni schistosomula using the Roboworm high-content screening assay , and were declared hits or nonhits based on their effect on parasites’ motility and phenotype scores after 72 h of incubation. As none of the compounds were considered hits at this concentration, we performed a titration from 6.25 to 50 μM (Figure S27).
DMSO was included as a negative control. Compounds were considered hits if both their motility and phenotype scores were lower than −0.35 and −0.15, respectively (region delimited by the dashed lines). In red, PZQ analogues selected for further analysis.
For the collection of schistosomula, B. glabrata snails infected with S. mansoni were shed for 2 h under light at 26 °C. Cercariae were collected, mechanically transformed into schistosomula as previously described.
DMSO (0.625%, v/v) was included as a negative control. Z′ values for the assay were calculated to be 0.542 for phenotype and 0.361 for motility. […]
Auranofin (AUR) was included at 10 µM as positive control. DMSO was included as a negative control. Compounds were considered hits if both their motility and phenotype scores were lower than -0.35 and -0.15, respectively (region delimited by the […]

[4] = Schistosoma mansoni, 24 h, male adult worms, 24 h, single experiment or geometric mean, read-out: Male worm motility inhibition (EC50)
[5] = Schistosoma mansoni, 48 h, male adult worms, 48 h, single experiment or geometric mean, read-out: Male worm motility inhibition (EC50)
[6] = Schistosoma mansoni, 72 h, male adult worms, 72 h, single experiment or geometric mean, read-out: Male worm motility inhibition (EC50)

Sm.TRPMPZQ (wild-type), sequence (A0A5K4F0X5 entry or part of it): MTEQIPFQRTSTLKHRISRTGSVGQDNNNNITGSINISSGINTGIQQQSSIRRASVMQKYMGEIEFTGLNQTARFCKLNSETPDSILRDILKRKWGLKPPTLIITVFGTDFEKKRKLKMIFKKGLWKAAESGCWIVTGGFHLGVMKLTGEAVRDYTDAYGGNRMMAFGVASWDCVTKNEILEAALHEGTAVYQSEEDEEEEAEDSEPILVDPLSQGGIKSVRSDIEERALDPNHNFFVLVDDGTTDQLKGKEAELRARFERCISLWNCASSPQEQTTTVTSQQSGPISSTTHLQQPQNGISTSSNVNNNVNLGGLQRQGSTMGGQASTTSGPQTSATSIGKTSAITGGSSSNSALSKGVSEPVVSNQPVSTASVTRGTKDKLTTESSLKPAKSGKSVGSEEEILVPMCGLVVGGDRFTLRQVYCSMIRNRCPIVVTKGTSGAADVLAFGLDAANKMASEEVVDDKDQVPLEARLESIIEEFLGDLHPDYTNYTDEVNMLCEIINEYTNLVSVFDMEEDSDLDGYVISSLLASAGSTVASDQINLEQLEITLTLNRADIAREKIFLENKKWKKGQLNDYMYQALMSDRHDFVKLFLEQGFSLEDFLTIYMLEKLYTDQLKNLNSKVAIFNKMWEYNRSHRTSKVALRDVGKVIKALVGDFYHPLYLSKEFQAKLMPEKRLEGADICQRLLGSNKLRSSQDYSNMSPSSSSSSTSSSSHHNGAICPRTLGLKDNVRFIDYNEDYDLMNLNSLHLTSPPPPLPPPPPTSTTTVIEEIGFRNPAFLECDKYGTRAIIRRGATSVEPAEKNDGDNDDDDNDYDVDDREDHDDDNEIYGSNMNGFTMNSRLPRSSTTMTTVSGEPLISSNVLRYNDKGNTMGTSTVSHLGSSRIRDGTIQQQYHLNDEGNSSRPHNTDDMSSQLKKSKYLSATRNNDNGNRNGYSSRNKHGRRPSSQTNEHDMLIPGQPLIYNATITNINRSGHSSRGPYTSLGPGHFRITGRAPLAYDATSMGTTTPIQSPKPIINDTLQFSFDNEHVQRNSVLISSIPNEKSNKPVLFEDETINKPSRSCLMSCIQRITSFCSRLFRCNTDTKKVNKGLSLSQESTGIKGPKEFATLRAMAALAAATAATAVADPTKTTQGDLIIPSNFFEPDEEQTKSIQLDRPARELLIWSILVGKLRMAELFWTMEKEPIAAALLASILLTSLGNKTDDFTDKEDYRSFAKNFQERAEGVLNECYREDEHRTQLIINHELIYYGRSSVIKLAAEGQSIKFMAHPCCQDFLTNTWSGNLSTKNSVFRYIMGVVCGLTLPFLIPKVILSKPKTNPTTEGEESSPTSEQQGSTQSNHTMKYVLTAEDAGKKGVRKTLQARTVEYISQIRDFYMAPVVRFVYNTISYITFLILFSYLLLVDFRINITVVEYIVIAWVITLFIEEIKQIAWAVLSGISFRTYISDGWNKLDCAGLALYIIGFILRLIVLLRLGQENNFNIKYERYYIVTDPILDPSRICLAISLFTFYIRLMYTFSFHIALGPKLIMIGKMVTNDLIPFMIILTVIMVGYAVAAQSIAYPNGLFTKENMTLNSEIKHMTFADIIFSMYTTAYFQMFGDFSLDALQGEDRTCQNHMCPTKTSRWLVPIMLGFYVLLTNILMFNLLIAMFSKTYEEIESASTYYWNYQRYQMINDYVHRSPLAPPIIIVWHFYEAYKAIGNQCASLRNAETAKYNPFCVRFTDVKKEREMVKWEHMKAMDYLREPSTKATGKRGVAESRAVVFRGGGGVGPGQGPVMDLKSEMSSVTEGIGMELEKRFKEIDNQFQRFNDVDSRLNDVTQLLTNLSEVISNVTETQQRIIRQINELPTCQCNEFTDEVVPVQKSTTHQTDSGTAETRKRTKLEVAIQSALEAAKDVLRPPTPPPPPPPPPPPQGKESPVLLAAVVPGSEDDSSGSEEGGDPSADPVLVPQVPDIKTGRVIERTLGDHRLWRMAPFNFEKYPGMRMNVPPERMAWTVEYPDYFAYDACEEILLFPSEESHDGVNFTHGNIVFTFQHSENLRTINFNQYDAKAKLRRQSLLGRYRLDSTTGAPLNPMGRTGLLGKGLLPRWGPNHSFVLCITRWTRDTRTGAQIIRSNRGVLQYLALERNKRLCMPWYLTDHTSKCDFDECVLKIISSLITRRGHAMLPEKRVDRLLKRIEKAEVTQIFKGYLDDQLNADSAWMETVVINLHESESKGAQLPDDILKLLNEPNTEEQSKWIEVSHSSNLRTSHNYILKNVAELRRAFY
Eg.TRPMPZQ, sequence (W6UVV9 entry or part of it): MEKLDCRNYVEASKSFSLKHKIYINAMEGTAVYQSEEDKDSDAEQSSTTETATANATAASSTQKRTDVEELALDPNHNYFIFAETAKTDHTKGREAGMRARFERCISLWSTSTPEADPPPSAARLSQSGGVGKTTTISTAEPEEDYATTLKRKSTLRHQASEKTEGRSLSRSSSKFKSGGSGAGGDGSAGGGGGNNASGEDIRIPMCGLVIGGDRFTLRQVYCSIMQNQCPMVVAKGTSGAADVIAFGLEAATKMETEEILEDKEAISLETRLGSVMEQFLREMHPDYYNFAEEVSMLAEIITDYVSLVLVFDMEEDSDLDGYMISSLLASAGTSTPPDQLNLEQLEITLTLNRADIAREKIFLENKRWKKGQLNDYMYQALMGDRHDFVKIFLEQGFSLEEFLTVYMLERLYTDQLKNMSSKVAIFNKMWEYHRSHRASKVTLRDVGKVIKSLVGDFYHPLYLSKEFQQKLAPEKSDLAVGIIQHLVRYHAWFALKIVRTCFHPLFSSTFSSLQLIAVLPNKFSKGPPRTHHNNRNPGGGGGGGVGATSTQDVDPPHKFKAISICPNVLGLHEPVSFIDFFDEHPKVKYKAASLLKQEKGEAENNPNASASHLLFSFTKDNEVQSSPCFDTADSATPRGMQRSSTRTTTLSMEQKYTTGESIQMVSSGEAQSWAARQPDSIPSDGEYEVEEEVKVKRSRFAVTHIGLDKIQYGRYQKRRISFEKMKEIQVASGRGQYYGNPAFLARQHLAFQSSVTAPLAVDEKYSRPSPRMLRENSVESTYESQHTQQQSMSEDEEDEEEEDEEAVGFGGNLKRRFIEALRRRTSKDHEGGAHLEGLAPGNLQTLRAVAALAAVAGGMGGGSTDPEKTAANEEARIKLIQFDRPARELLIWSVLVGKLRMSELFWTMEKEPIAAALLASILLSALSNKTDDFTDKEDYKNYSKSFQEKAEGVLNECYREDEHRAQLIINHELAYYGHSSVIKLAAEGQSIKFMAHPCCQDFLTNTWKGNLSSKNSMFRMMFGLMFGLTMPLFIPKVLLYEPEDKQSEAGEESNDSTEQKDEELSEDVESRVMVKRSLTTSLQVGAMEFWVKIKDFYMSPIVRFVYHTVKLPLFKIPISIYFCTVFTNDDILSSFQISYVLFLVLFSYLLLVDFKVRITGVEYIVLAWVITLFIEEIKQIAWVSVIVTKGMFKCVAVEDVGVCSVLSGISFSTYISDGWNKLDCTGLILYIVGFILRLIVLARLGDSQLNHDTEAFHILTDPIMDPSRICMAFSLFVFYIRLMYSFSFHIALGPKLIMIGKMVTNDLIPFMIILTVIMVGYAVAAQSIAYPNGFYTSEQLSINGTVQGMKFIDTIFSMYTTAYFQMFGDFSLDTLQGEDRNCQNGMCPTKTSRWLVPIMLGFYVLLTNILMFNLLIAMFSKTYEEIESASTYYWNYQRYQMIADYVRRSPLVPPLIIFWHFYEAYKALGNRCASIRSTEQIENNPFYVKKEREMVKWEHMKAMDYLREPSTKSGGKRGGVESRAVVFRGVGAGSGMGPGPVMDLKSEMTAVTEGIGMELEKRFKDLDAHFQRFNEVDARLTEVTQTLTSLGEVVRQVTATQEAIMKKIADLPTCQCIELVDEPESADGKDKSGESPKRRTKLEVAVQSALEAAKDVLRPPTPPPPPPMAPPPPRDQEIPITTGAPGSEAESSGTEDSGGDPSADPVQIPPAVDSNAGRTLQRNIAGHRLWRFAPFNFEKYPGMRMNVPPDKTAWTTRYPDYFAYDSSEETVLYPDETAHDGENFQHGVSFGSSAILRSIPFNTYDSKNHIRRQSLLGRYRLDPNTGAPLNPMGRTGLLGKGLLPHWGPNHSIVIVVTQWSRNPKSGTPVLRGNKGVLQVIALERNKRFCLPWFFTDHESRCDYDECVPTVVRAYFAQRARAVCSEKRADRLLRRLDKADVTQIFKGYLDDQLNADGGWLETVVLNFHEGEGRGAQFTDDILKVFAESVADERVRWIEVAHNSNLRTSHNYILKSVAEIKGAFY

Nc1ccc2c(c1)C1CN(C(=O)C3CCCCC3)CC(=O)N1CC2 (stereo not shown) [Compound 3, 9-NH2–PZQ]
Selectivity Index (CC50/EC50), Female ([1]; HepG2 CC50 / female worm motility EC50, 48 h): >30
Selectivity Index (CC50/EC50), Male [1]: >67
CC50 ([1]; human, 48 h): > 300 µM
CC50 at 48 h (in vitro): ~300 µM
number of juvenile worms with viability score 0 (juvenile schistosomes): 38
number of juvenile worms with viability score 1 (juvenile schistosomes): 2
number of juvenile worms with viability score 2 (juvenile schistosomes): 14
number of juvenile worms with viability score 3 (juvenile schistosomes): 38
parasite metabolic activity compared to the DMSO control group (XTT) [2]: significantly decreased
activation of Fh.TRPMPZQ (Fh.TRPMPZQ): did not activate
activation of Sm.TRPMMCLZ (Sm.TRPMMCLZ): did not activate
EC50 (Sm.TRPMPZQ (wild-type); 0.001 to 100 μM): 7.09 ± 0.18 µM
Emax (Sm.TRPMPZQ (wild-type); read-out: Bmax, wild-type Sm.TRPMPZQ activation): 90 ± 1.31%
EC50 ([3]; Schistosoma mansoni, 0 h, female adult worms, 0 h (immediately after addition), single experiment or geometric mean, read-out: Female worm motility inhibition (EC50)): 8.36 µM
EC50 ([3]; Schistosoma mansoni, 24 h, female adult worms, 24 h, single experiment or geometric mean, read-out: Female worm motility inhibition (EC50)): 9.6 µM
EC50 ([3]; Schistosoma mansoni, 24 h, female, 24 h, individual experiments, read-out: Female worm motility inhibition (EC50), values of independent experiments): 9.04 µM
EC50 [3, 4]: 5.4 µM
EC50 ([3]; Schistosoma mansoni, 48 h, female adult worms, 48 h, single experiment or geometric mean, read-out: Female worm motility inhibition (EC50)): 9.9 µM
EC50 ([3]; Schistosoma mansoni, 48 h, female, 48 h, individual experiments, read-out: Female worm motility inhibition (EC50), values of independent experiments): 9.36 µM
EC50 [3, 5]: 4.5 µM
EC50 ([3]; Schistosoma mansoni, 48 h, male, 48 h, individual experiments, read-out: Male worm motility inhibition (EC50), values of independent experiments): 3.94 µM
EC50 ([3]; Schistosoma mansoni, 72 h, female adult worms, 72 h, single experiment or geometric mean, read-out: Female worm motility inhibition (EC50)): 11.2 µM
EC50 ([3]; Schistosoma mansoni, 72 h, female, 72 h, individual experiments, read-out: Female worm motility inhibition (EC50), values of independent experiments): 8.77 µM
EC50 [3, 6]: 3.5 µM
EC50 ([3]; Schistosoma mansoni, 72 h, male, 72 h, individual experiments, read-out: Male worm motility inhibition (EC50), values of independent experiments): 3.8 µM
EC50 ([3]; female adult worms, 72 h, single experiment or geometric mean, read-out: Female worm motility inhibition (EC50)): 11 µM
EC50 ([3]; female, 24 h, individual experiments, read-out: Female worm motility inhibition (EC50), values of independent experiments): 10.2 µM
EC50 ([3]; female, 48 h, individual experiments, read-out: Female worm motility inhibition (EC50), values of independent experiments): 10.5 µM
EC50 ([3]; female, 72 h, individual experiments, read-out: Female worm motility inhibition (EC50), values of independent experiments): 14.3 µM
EC50 ([3]; male, 24 h, individual experiments, read-out: Male worm motility inhibition (EC50), values of independent experiments): 8.1 µM and 5.61 µM and 3.44 µM
EC50 ([3]; male, 48 h, individual experiments, read-out: Male worm motility inhibition (EC50), values of independent experiments): 4.56 µM
EC50 ([3]; male, 72 h, individual experiments, read-out: Male worm motility inhibition (EC50), values of independent experiments): 3.29 µM and 3.58 µM
Emax (Eg.TRPMPZQ): 138 ± 13.2%

O=C(C1CCCCC1)N1CC(=O)N2CCc3ccc(-n4cc(COc5ccccc5)nn4)cc3C2C1 (stereo not shown) [Compound 5c]
block of PZQ activation of Sm.TRPMPZQ (antagonist mode) (Sm.TRPMPZQ): failed to impact subsequent responses to PZQ
Selectivity Index (CC50/EC50), Male [1]: <0.9
Selectivity Index (SI), sex not specified ([1]; HepG2 vs adult worms, 48 h): < 1
CC50 at 48 h (in vitro): 88.1 µM
activity against juvenile schistosomes (grouped score analysis) (juvenile schistosomes): lacks activity
number of juvenile worms with viability score 0 (juvenile schistosomes): 19
number of juvenile worms with viability score 1 (juvenile schistosomes): 1
number of juvenile worms with viability score 2 (juvenile schistosomes): 4
number of juvenile worms with viability score 3 (juvenile schistosomes): 72
parasite metabolic activity compared to the DMSO control group (XTT) [2]: no statistically significant differences
hit classification (motility and phenotype scores) (S. mansoni schistosomula): borderline
Bmax, wild-type Sm.TRPMPZQ activation (Sm.TRPMPZQ (wild-type)): No activity
EC50 for wild-type Sm.TRPMPZQ activation (Sm.TRPMPZQ (wild-type); 0.001 to 100 μM): failed to activate; also recorded: No activity
EC50 ([3]; Schistosoma mansoni, 0 h, male adult worms, 0 h (immediately after addition), single experiment or geometric mean, read-out: Male worm motility inhibition (EC50)): > 100 µM
EC50 [3, 4]: > 100 µM
EC50 [3, 5]: > 100 µM
EC50 [3, 6]: > 100 µM
EC50 for Eg.TRPMPZQ activation (Eg.TRPMPZQ): No signal
Emax (Eg.TRPMPZQ): 7.63 ± 0.72%
